The values that follow come from patent US8652444B2, “Oral compositions containing biphenol antibacterial compounds” (Colgate-Palmolive Company, priority 2004, dated 2014).

In brackets after ≈: the same amount, converted by molar mass.

Common to all, as to type: cell-based
One experiment has as its system P. nigresc. As to the kind of experiment: MIC50 against bacteria. The settings on record: unit assumed. The method, then:
(§1) MIC50 values against a variety of bacteria are measured for the dipropyl and dibutyl derivatives and compared to those for triclosan.

The next experiment relates to P. intermedia. As to the kind of experiment: MIC50 against bacteria. The settings on record: unit assumed. The procedure:
as §1

A further experiment concerns M. catarrhalis. As to the kind of experiment: MIC50 against bacteria. The settings on record: unit assumed. The procedure:
as §1

The test system of the next experiment is B. cereus. As to the kind of experiment: MIC50 against bacteria. The settings on record: unit assumed. The method, then: as §1
The next experiment deals with P. gingivalis. The experiment in a line: MIC50 against bacteria. The following applies: unit assumed. The procedure:
as §1

In the next experiment the test system is S. mutans. The experiment in a line: MIC50 against bacteria. The settings on record: unit assumed. The method, then:
as §1

The next experiment concerns B. subtilis. As to the kind of experiment: MIC50 against bacteria. The settings on record: unit assumed. The method, then:
as §1

Another experiment concerns F. nucleatum. The experiment in a line: MIC50 against bacteria. The following applies: unit assumed. The procedure:
as §1

Another experiment concerns E. corrodens. As to the kind of experiment: MIC50 against bacteria. The following applies: unit assumed. The procedure:
as §1

Another experiment concerns S. gordonii. As to the kind of experiment: MIC50 against bacteria. The settings on record: unit assumed. The procedure: as §1
The next experiment deals with S. aureus. The experiment in a line: MIC50 against bacteria. The settings on record: unit assumed. The method, then: as §1
Another experiment deals with A. actino. As to the kind of experiment: MIC50 against bacteria. The following applies: unit assumed. The procedure: as §1
The test system of experiment [1] is staphylococcus, streptococcus, and bacillus bacteria. As to the kind of experiment: MIC50 against a variety of bacteria, comparison. The settings on record: against a number of staphylococcus, streptococcus, and bacillus bacteria of Table I; comparable to triclosan. The method, then:
as §1

The subject of the next experiment is certain oral bacteria. The experiment in a line: MIC50 against certain oral bacteria, comparison. The procedure: as §1

Regarding `CCCc1ccc(O)c(-c2cc(CCC)ccc2O)c1` [dipropyl derivative, 5,5′-propyl-2,2′-dihydroxy-1,1′-biphenyl], the MIC50 in the experiment on P. nigresc. was 7.8 µg/mL (≈ 28.8 µM); in the experiment on P. intermedia it was 2 µg/mL (≈ 7.4 µM); against M. catarrhalis, 7.8 µg/mL (≈ 28.8 µM); against B. cereus, > 500 µg/mL; in the experiment with P. gingivalis, 3.9 µg/mL (≈ 14.4 µM); with S. mutans, > 500 µg/mL. In addition, the MIC50 with B. subtilis was > 500 µg/mL; in the experiment with F. nucleatum, > 500 µg/mL; in the experiment on E. corrodens it was 1 µg/mL (≈ 3.7 µM); in the experiment with S. gordonii, > 500 µg/mL; in the experiment on S. aureus, > 500 µg/mL; against A. actino. it was > 500 µg/mL.
Take `Oc1cc(Cl)ccc1Oc1ccc(Cl)cc1Cl` [triclosan]: the MIC50 with P. nigresc. was 3.9 µg/mL (≈ 13.5 µM); against P. intermedia it was 1 µg/mL (≈ 3.45 µM); against M. catarrhalis, < 0.001 µg/mL; against B. cereus, 15.6 µg/mL (≈ 53.9 µM); with P. gingivalis, 0.5 µg/mL (≈ 1.73 µM); against S. mutans, 7.8 µg/mL (≈ 26.9 µM). The MIC50 is 2 µg/mL (≈ 6.91 µM) in the experiment with B. subtilis; 1 µg/mL (≈ 3.45 µM) against F. nucleatum; < 0.001 µg/mL with E. corrodens; 7.8 µg/mL (≈ 26.9 µM) in the experiment on S. gordonii; 2 µg/mL (≈ 6.91 µM) in the experiment on S. aureus; 0.125 µg/mL (≈ 0.432 µM) against A. actino..
For the compound `CCCCc1ccc(O)c(-c2cc(CCCC)ccc2O)c1` [dibutyl derivative, 5,5′-dibutyl-2,2′-dihydroxy-1,1′-biphenyl], the MIC50 was 3.9 µg/mL (≈ 13.1 µM) in the experiment on P. nigresc.; 2 µg/mL (≈ 6.7 µM) in the experiment on P. intermedia; 15.6 µg/mL (≈ 52.3 µM) against M. catarrhalis; 31.3 µg/mL (≈ 105 µM) in the experiment with B. cereus; 2 µg/mL (≈ 6.7 µM) against P. gingivalis; 3.9 µg/mL (≈ 13.1 µM) in the experiment on S. mutans. In addition, the MIC50 was 7.8 µg/mL (≈ 26.1 µM) in the experiment with B. subtilis; > 500 µg/mL in the experiment on F. nucleatum; 0.5 µg/mL (≈ 1.68 µM) against E. corrodens; 31.3 µg/mL (≈ 105 µM) against S. gordonii; 7.8 µg/mL (≈ 26.1 µM) against S. aureus; > 500 µg/mL against A. actino.. Also, the “MIC50 relative to the dipropyl derivative” value in experiment [1] is recorded as “over an order of magnitude less than that of the dipropyl derivative”. For the same compound, the “MIC50 relative to an analogous compound containing propyl groups” value against certain oral bacteria was “lower”.

The MIC50 is the lowest concentration that inhibits either 50% of growth or 50% of the strains tested, depending on the study. Lower therefore signals greater potency.
